Reference: patent US5494925A, “2-heterocyclyloxymethyl and 2-heterocyclylthiomethyl-1,2,5-thiadiazolidin-3-one 1,1-dioxides and compositions and method of use thereof” (Sterling Winthrop Inc., priority 1994, dated 1996)

Molecular target: T1, human leukocyte elastase (Homo sapiens, UniProt P08246)
T1 sequence (P08246 30-267): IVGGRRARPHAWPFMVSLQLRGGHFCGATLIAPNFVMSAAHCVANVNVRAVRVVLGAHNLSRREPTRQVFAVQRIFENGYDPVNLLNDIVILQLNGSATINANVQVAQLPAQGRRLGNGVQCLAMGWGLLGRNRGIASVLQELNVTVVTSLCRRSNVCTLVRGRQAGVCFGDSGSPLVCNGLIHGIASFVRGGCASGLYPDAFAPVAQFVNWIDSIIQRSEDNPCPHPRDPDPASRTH
Experiment: human leukocyte elastase inhibition, progress curves with MeOSuc-Ala-Ala-Pro-Val-pNA
Assay type: biochemical
Conditions: HLE; substrate MeOSuc-Ala-Ala-Pro-Val-pNA; pH 7.8, 25° C.; 410 nM absorbance; read-out: inhibition constant Ki
Description: The test compound (inhibitor) is dissolved in DMSO in a vial to produce an inhibitor stock solution which has a concentration in the range of 200-1000 μM. The inhibitor stock solution is diluted (1:4, 1:16 and 1:64) into assay vials (vials 1, 2 and 3 respectively) containing 2.4 mL of buffer solution (50 mM N-[2-hydroxyethyl]piperazine-N'-[2-ethanesulfonic acid]/NaOH, 500 mM NaCl, pH 7.8 at 25° C.) and DMSO is added so that the total volume in each vial is 3.2 mL. 70 μL, 50 μL, 35 μL and 25 μL of inhibitor from assay vial 1 is placed into the first four wells of a 96-well microtiter plate and each well is made up to 90 μL total volume with the addition of a 25% DMSO/buffer solution. The inhibitor from assay vials 2 and 3 is processed in a similar manner and placed in wells 5-12 respectively to afford a total of 12 different inhibitor concentrations. Four wells (wells 13-16) containing 90 μL of the 25% DMSO/buffer solution but no inhibitor are also run simultaneously with the inhibited wells as a control. 150 μL of substrate solution (prepared by the addition of 500 μL of the human leukocyte elastase (HLE) substrate MeOSuc-Ala-Ala-Pro-Val-pNA (18.7 mM in DMSO) to 19.5 mL of buffer solution) is then added simultaneously into each of the 16 wells and the solution in each well was thoroughly mixed.
The 96-well microtiter plate is placed into a Microplate Reader #89815A spectrophotometer and 110 μL of the enzyme solution (prepared as follows: a mixture of 20 mL of buffer solution and 20 mg of bovine serum albumen is gently vortexed in a scintillation vial and 5 μL HLE stock solution (1 mg/mL dissolved in deionized water) is added) is added simultaneously to each of the 16 wells. Each of the solutions in the wells is thoroughly mixed and then the time-dependent absorbance data is collected at an absorbance of 410 nm until the assay is complete. It should be noted that although this assay method can be done manually, it is preferred to perform the assay robotically using a Hewlett Packard MicroAssay System Robot.
A plot of the absorbance versus time data thus obtained affords progress curves the final slope of which is equal to the final steady-state velocities (VF). Using the program ENZFITTER (Elsevier software), the progress curves for the four control assays ([I]=0) are fit by linear regression to yield the enzyme reaction velocity values in the absences of inhibitor (Vo) which are averaged to produce a single fixed value. The inhibition constant Ki (nM) is then obtained from a plot of [formula] which affords a linear plot wherein: [formula] and [S] is the concentration of the substrate and Km is the Michaelis constant.
Table V summarizes the results obtained from the testing of representative compounds of the invention for human leukocyte elastase inhibitory activity.

Row | SMILES | Ki [nM]
1 | CC(C)C1NS(=O)(=O)N(CSc2nnnn2-c2ccccc2)C1=O (racemic) [2 (f), 2-(1-phenyl-1H-tetrazol-5-yl-thiomethyl)-4-isopropyl-1,2,5-thizdizolidin-3-one 1,1-dioxide] | 3000
2 | CCCC1NS(=O)(=O)N(CSc2nnnn2-c2ccccc2)C1=O (centres unmarked) [1 (f), 2-(1-phenyl-1H-tetrazol-5-yl-thiomethyl)-4-propyl-1,2,5-thiadiazolidin-3-one 1,1-dioxide] | 180
3 | CCCC1C(=O)N(CSc2nnnn2-c2ccccc2)S(=O)(=O)N1C (centres unmarked) [3 (h), 2-(1-phenyl-1H-tetrazol-5-yl-thiomethyl)-4-propyl-5-methyl-1,2,5-thiadiazolidin-3-one 1,1-dioxide] | 3.6
4 | CC(C)C1C(=O)N(CSc2nnnn2-c2ccccc2)S(=O)(=O)N1C (centres unmarked) [4 (f), 2-(1-phenyl-1H-tetrazol-5-yl-thiomethyl)-4-isopropyl-5-methyl-1,2,5-thiadiazolidin-3-one 1,1-dioxide] | 200

Further lines, results first:

Row | Ki [nM] | SMILES
5 | 11 | CCCC1C(=O)N(CSc2nnnn2-c2ccccc2)S(=O)(=O)N1CC (centres unmarked) [5 (i), 2-(1-phenyl-1H-tetrazol-5-yl-thiomethyl)-4-propyl-5-ethyl-1,2,5-thiadiazolidin-3-one 1,1-dioxide]
6 | 2.4 | CC(C)CCC1C(=O)N(COc2cc(C(F)(F)F)nn2-c2ccccc2)S(=O)(=O)N1C (centres unmarked) [6 (j), 2-(1-phenyl-3-trifluoromethyl-pyrazol-5-yloxymethyl)-4-(3-methylbutyl)-5-methyl-1,2,5-thiadiazolidin-3-one 1,1-dioxide]
7 | 85 | O=C1C2CCCCN2S(=O)(=O)N1CSc1nnnn1-c1ccccc1 (centres unmarked) [18 (f), 2-(1-phenyl-1H-tetrazol-5-yl-thiomethyl)-1,2,5-thiadiazolo [2,3-a]3,3a,4,5,6,7-hexahydropyridine-3-one 1,1-dioxide]
8 | 540 | O=C1C2CCCN2S(=O)(=O)N1CSc1nnnn1-c1ccccc1 (centres unmarked) [19 (f), 2-(1-phenyl-1H-tetrazol-5-yl-thiomethyl)tetrahydropyrrolo[1,2-b]-1,2,5-thiadiazol-3 (2H)-one 1,1-dioxide]
